Assay: Solubility of the compound of Formula (I) in aqueous media without surfactant
Type: physicochemical
Settings: aqueous buffer; hydrochloric acid solution, buffer, and water without surfactant, 37° C., pH 1.0˜9.0
Procedure: The very low solubility limits its use in the development as a drug candidate. Chinese patent application 202010105909.9 reports a semi-solid capsule technology that can substantially increase the dissolution of the compound shown in Formula (I), but the capsule needs to be stored in a cool place below room temperature, not exceeding 15° C., specifically in a closed container at 2 to 8° C.

Cc1cc(OC[P@@]2(=O)OCC[C@@H](c3cccc(Cl)c3)O2)cc(C)c1Cc1ccc(O)c(C(C)C)c1 [Formula (I) compound]
solubility: < 0.5 ng/mL

Source: patent publication US11752161B2, “Pharmaceutical compositions, method of making and method of using thereof” (Gannex Pharma Co., Ltd., priority 2020, dated 2023)
